# Values quoted from earlier work in PubChem BioAssay AID1259409 (Chemical Carcinogenesis Research Information System (CCRIS), 2018).
# Tested on: rodent chemically induced tumor inhibition, incidence and multiplicity
# Assay: CCRIS tumor inhibitor studies
# Conditions: Species: MOUSE
smiles,measurement,setting,value
C=Cc1ccc2ccc3cccc4ccc1c2c34,"tumour outcome (control, treated, inhibition, significance)","Carcinogen: 7,12-DIMETHYLBENZ[A]ANTHRACENE, 57-97-6, Dose [Inhibitor]: 0, 44 NMOL IN 0.2 ML ACETONE APPLIED TO BACK ONCE 5 MIN PRIOR TO CARCINOGEN DOSE (STUDY DURATION: 26 WK), Route [Inhibitor]: DERMAL, Strain/Sex: SENCAR/FEMALE, Target Tissue: Type of Lesion: SKIN: PAPILLOMA, Dose [Carcinogen]: 10 NMOL IN 0.2 ML ACETONE APPLIED TO BACK ONCE.","100%, 100%, 0%, not significant"
same,"tumour outcome (control, treated, inhibition, significance)","Carcinogen: 7,12-DIMETHYLBENZ[A]ANTHRACENE, 57-97-6, Dose [Inhibitor]: 0, 440 NMOL IN 0.2 ML ACETONE APPLIED TO BACK ONCE 5 MIN PRIOR TO CARCINOGEN DOSE (STUDY DURATION: 26 WK), Route [Inhibitor]: DERMAL, Strain/Sex: SENCAR/FEMALE, Target Tissue: Type of Lesion: SKIN: PAPILLOMA, Dose [Carcinogen]: 10 NMOL IN 0.2 ML ACETONE APPLIED TO BACK ONCE.","100%, 92%, 8%, not calculated"
same,"tumour outcome (control, treated, inhibition, significance)","Carcinogen: 7,12-DIMETHYLBENZ[A]ANTHRACENE, 57-97-6, Dose [Inhibitor]: 0, 4400 NMOL IN 0.2 ML ACETONE APPLIED TO BACK ONCE 5 MIN PRIOR TO CARCINOGEN DOSE (STUDY DURATION: 20 WK), Route [Inhibitor]: DERMAL, Strain/Sex: SENCAR/FEMALE, Target Tissue: Type of Lesion: SKIN: PAPILLOMA, Dose [Carcinogen]: 10 NMOL IN 0.2 ML ACETONE APPLIED TO BACK ONCE.","100%, 68%, 32%, not calculated"
same,"tumour outcome (control, treated, inhibition, significance)","Carcinogen: 7,12-DIMETHYLBENZ[A]ANTHRACENE, 57-97-6, Dose [Inhibitor]: 0, 4400 NMOL IN 0.2 ML ACETONE APPLIED TO BACK ONCE 5 MIN PRIOR TO CARCINOGEN DOSE (STUDY DURATION: 26 WK), Route [Inhibitor]: DERMAL, Strain/Sex: SENCAR/FEMALE, Target Tissue: Type of Lesion: SKIN: PAPILLOMA, Dose [Carcinogen]: 10 NMOL IN 0.2 ML ACETONE APPLIED TO BACK ONCE.","100%, 79%, 21%, not calculated"
same,"tumour outcome (control, treated, inhibition, significance)","Carcinogen: 7,12-DIMETHYLBENZ[A]ANTHRACENE, 57-97-6, Dose [Inhibitor]: 0, 44000 NMOL IN 0.2 ML ACETONE APPLIED TO BACK ONCE 5 MIN PRIOR TO CARCINOGEN DOSE (STUDY DURATION: 20 WK), Route [Inhibitor]: DERMAL, Strain/Sex: SENCAR/FEMALE, Target Tissue: Type of Lesion: SKIN: PAPILLOMA, Dose [Carcinogen]: 10 NMOL IN 0.2 ML ACETONE APPLIED TO BACK ONCE.","100%, 24%, 76%, not calculated"
same,"tumour outcome (control, treated, inhibition, significance)","Carcinogen: BENZO[A]PYRENE, 50-32-8, Dose [Inhibitor]: 0, 2200 NMOL IN 0.2 ML ACETONE APPLIED TO BACK ONCE 5 MIN PRIOR TO CARCINOGEN DOSE (STUDY DURATION: 26 WK), Route [Inhibitor]: DERMAL, Strain/Sex: SENCAR/FEMALE, Target Tissue: Type of Lesion: SKIN: PAPILLOMA, Dose [Carcinogen]: 200 NMOL IN 0.2 ML ACETONE APPLIED TO BACK ONCE.","100%, 95%, 5%, not calculated"
same,"tumour outcome (control, treated, inhibition, significance)","Carcinogen: BENZO[A]PYRENE, 50-32-8, Dose [Inhibitor]: 0, 4400 NMOL IN 0.2 ML ACETONE APPLIED TO BACK ONCE 5 MIN PRIOR TO CARCINOGEN DOSE (STUDY DURATION: 20 WK), Route [Inhibitor]: DERMAL, Strain/Sex: SENCAR/FEMALE, Target Tissue: Type of Lesion: SKIN: PAPILLOMA, Dose [Carcinogen]: 200 NMOL IN 0.2 ML ACETONE APPLIED TO BACK ONCE., Promoter: PHORBOLMYRISTATE ACETATE, 16561-29-8","75%, 64%, 15%, not calculated"
same,"tumour outcome (control, treated, inhibition, significance)","Carcinogen: BENZO[A]PYRENE, 50-32-8, Dose [Inhibitor]: 0, 22000 NMOL IN 0.2 ML ACETONE APPLIED TO BACK ONCE 5 MIN PRIOR TO CARCINOGEN DOSE (STUDY DURATION: 26 WK), Route [Inhibitor]: DERMAL, Strain/Sex: SENCAR/FEMALE, Target Tissue: Type of Lesion: SKIN: PAPILLOMA, Dose [Carcinogen]: 200 NMOL IN 0.2 ML ACETONE APPLIED TO BACK ONCE.","100%, 59%, 41%, not calculated"
same,"tumour outcome (control, treated, inhibition, significance)","Carcinogen: BENZO[A]PYRENE, 50-32-8, Dose [Inhibitor]: 0, 44000 NMOL IN 0.2 ML ACETONE APPLIED TO BACK ONCE 5 MIN PRIOR TO CARCINOGEN DOSE (STUDY DURATION: 20 WK), Route [Inhibitor]: DERMAL, Strain/Sex: SENCAR/FEMALE, Target Tissue: Type of Lesion: SKIN: PAPILLOMA, Dose [Carcinogen]: 200 NMOL IN 0.2 ML ACETONE APPLIED TO BACK ONCE","75%, 59%, 21%, not calculated"
same,"tumour outcome (control, treated, inhibition, significance)","Carcinogen: BENZO[A]PYRENE, 50-32-8, Dose [Inhibitor]: 0, 44000 NMOL IN 0.2 ML ACETONE APPLIED TO BACK ONCE 5 MIN PRIOR TO CARCINOGEN DOSE (STUDY DURATION: 26 WK), Route [Inhibitor]: DERMAL, Strain/Sex: SENCAR/FEMALE, Target Tissue: Type of Lesion: SKIN: PAPILLOMA, Dose [Carcinogen]: 200 NMOL IN 0.2 ML ACETONE APPLIED TO BACK ONCE.","100%, 38%, 62%, not calculated"
same,"tumour outcome (control, treated, inhibition, significance)","Carcinogen: N-METHYL-N'-NITRO-N-NITROSOGUANIDINE, 70-25-7, Dose [Inhibitor]: 0, 22000 NMOL IN 0.2 ML ACETONE APPLIED TO BACK ONCE 5 MIN PRIOR TO CARCINOGEN DOSE (STUDY DURATION: 20 WK), Route [Inhibitor]: DERMAL, Strain/Sex: SENCAR/FEMALE, Target Tissue: Type of Lesion: SKIN: PAPILLOMA, Dose [Carcinogen]: 2500 NMOL IN 0.2 ML ACETONE APPLIED TO BACK ONCE.","78%, 79%, -1%, not calculated"
O=C(/C=C/c1ccc(O)c(C2C(c3ccc(O)cc3)Oc3cc(O)ccc3C2c2cc(C3OC(c4ccc(O)cc4)C(C(=O)c4ccc(O)cc4O)C3Cc3ccc(O)cc3)c(O)cc2O)c1)c1ccc(O)cc1O (configuration not stated),"tumour outcome (control, treated, inhibition, significance)","Carcinogen: 7,12-DIMETHYLBENZ[A]ANTHRACENE, 57-97-6, Dose [Inhibitor]: 0, 16 NMOL 2/WK 1 HR PRIOR TO EACH PROMOTER DOSE FOR 20 WK (STUDY DURATION: 20 WK), Route [Inhibitor]: DERMAL, Strain/Sex: ICR/FEMALE, Target Tissue: Type of Lesion: SKIN: TUMOR, Dose [Carcinogen]: 0.19 UMOL ONCE, Promoter: 12-0-TETRADECANOYLPHORBOL-13-ACETATE, 16561-29-8","70%, 45%, 36%, not calculated"
CC(C)(C)c1cc(COCc2cc(C(C)(C)C)c(O)c(C(C)(C)C)c2)cc(C(C)(C)C)c1O,"tumour outcome (control, treated, inhibition, significance)","Carcinogen: BENZO[A]PYRENE, 50-32-8, Dose [Inhibitor]: 0.03 MMOL/G OF DIET DAILY STARTING 7 D BEFORE AND CONTINUING THROUGH 3 D AFTER CARCINOGEN TREATMENT FOLLOWED BY OBSERVAT, Route [Inhibitor]: ORAL, Strain/Sex: ICR/FEMALE, Target Tissue: Type of Lesion: FORESTOMACH: NEOPLASM, Dose [Carcinogen]: 1 MG IN 0.2 ML CORN OIL 2/WK FOR 4 WK, Promoter: NONE USED","94%, 95%, -1%, not significant"
CCOC(=O)Oc1ccc(/C=C/C=C/C(=O)NCCN2CCC(OC(c3ccccc3)c3ccccc3)CC2)cc1OC,"tumour outcome (control, treated, inhibition, significance)","Carcinogen: 7,12-DIMETHYLBENZ[A]ANTHRACENE, 57-97-6, Dose [Inhibitor]: 0, 30 MG/KG IN 5% TWEEN 80 ADMINISTERED 30 MIN PRIOR TO EACH PROMOTER DOSE 2/WK FOR 22 WK (STUDY DURATION: 25 WK), Route [Inhibitor]: ORAL, Strain/Sex: CD-1/FEMALE, Target Tissue: Type of Lesion: SKIN: TUMOR, Dose [Carcinogen]: 200 NMOL ONCE, Promoter: 12-O-TETRADECANOYL-13-ACETATE, 16561-29-8","100%, 55%, 45%, p<0.05"
same,"tumour outcome (control, treated, inhibition, significance)","Carcinogen: 7,12-DIMETHYLBENZ[A]ANTHRACENE, 57-97-6, Dose [Inhibitor]: 0, 30 MG/KG IN 5% TWEEN 80 ADMINISTERED 30 MIN PRIOR TO EACH PROMOTER DOSE 2/WK FOR 22 WK (STUDY DURATION: 25 WK), Route [Inhibitor]: ORAL, Strain/Sex: CD-1/FEMALE, Target Tissue: Type of Lesion: SKIN: TUMOR, Dose [Carcinogen]: 200 NMOL ONCE, Promoter: ANTHRALIN, 1143-38-0","92%, 35%, 62%, p<0.05"
same,"tumour outcome (control, treated, inhibition, significance)","Carcinogen: BENZO[A]PYRENE, 50-32-8, Dose [Inhibitor]: 0, 30 MG/KG IN 5% TWEEN 80 1/WK FOR 22 WK ADMINISTERED 30 MIN PRIOR TO EACH CARCINOGEN DOSE (STUDY DURATION: 22 WK), Route [Inhibitor]: ORAL, Strain/Sex: CD-1/FEMALE, Target Tissue: Type of Lesion: SKIN: TUMOR, Dose [Carcinogen]: 200 NMOL 1/WK FOR 22 WK, Promoter: NONE USED","100%, 50%, 50%, p<0.05"
COc1cc(C2OCC3C(c4ccc5c(c4)OCO5)OCC23)ccc1O (configuration not stated),"tumour outcome (control, treated, inhibition, significance)","Carcinogen: 7,12-DIMETHYLBENZ[A]ANTHRACENE, 57-97-6, Dose [Inhibitor]: 0, 85 NMOL IN 0.1 ML ACETONE 2/WK FOR 20 WK APPLIED 1 HR PRIOR TO EACH PROMOTER DOSE (STUDY DURATION: 20 WK), Route [Inhibitor]: DERMAL, Strain/Sex: ICR/FEMALE, Target Tissue: Type of Lesion: SKIN: PAPILLOMA, Dose [Carcinogen]: 100 UG IN 0.1 ML ACETONE ONCE, Promoter: 12-O-TETRADECANOYLPHORBOL-13-ACETATE, 16561-29-8","100%, 80%, 20%, not calculated"
